# Laboratory results reported in patent publication US7968558B2, “Amidine derivatives of 2-heteroaryl-quinazolines and quinolines; potent analgesics and anti-inflammatory agents” (Rottapharm S.p.A., priority 2006, dated 2011).
# How the values were obtained:
# IL-1 production = IL-1 production in IL-1 stimulated human chondrosarcoma cell line; type: cell-based; settings: Compound concentration is 10 μM
# Excerpt: (§1) The compounds of the invention have been found effective in interfering with cytokine production in several cell lines, representative examples of this effect are reported in Table 3, for two representative cytokines, in IL-1 stimulated human chondrosarcoma cell line.
# IL-6 production = IL-6 production in IL-1 stimulated human chondrosarcoma cell line; type: cell-based; settings: Compound concentration is 10 μM
# Excerpt: as §1
# [1] = system: Zymosan induced paw volume increase; assay: Zymosan-induced paw oedema; type: in vivo, rat; settings: oral
# Procedure: The interplantar injection of Zymosan-induced mechanical hyperalgesia was used as a model of inflammatory pain (Meller, Neuropharmacology, 1994, 33, 1471-1478). In this model, typically a male Sprague-Dawley or Wistar rat (200-250 g) receives an interplantar injection of 3 mg/100 μl zymosan into one hind paw. A marked inflammation occurs in this hind paw. Drugs are administered orally for evaluation of efficacy, 30 min. before the inflammatory insult. The hyperalgesia induced by zymosan administration was evaluated using the Randall-Selitto method (Arch. Int. Pharmacodyn., 1957, 111, 409). The quantitation of the analgesic effect is achieved by an analgesimeter, which consist in applying to the inflamed paw an increasing weight (from 130-140 g up to 500 g). The difference in the mechanical pain threshold between the basal value (generally 230-250 g) and the one tolerated by the animals treated with the drug, determined 4 hours after the inflammatory challenge, is defined as mechanical hyperalgesia.
# Mechanical hyperalgesia is expressed for the compounds of the invention as ED50, which is the dose of the administered compound able to increase the pain threshold by 50% in comparison with the group of control animals. The corresponding ED100, representing the dose able of reducing of 100% the pain threshold, can be calculated for those cases where there is a linear dose-response relationship. In vivo anti-inflammatory effect exerted by the compound of the invention can be assessed in the same Zymosan induced inflammation test described above, by measuring the volume of the oedema induced by the inflammatory agent. The oedema was evaluated as the increase in the volume of the Zymosan injected paw within a time of 0-2 hrs. The measurements of the variation of the oedema volume of the paw were recorded using hydroplethysmometer, which consists of two plastic cuvettes containing a surfactant liquid, the larger one being used for immersion of the paw, connected to the smaller one which contains a trans-ducer capable of recording small displacements of the volume used for the measure. The paw is immersed in the cuvettes up to the tibiotarsal joint. The volume of the liquid displaced is proportional to the extent of the inflammation. The efficacy of the compounds of the invention in preventing oedema formation is expressed as ED30, and is measured 2 hours after the inflammatory challenge, and represents the dose able of reducing of 30%, the Zymosan induced paw volume increase in comparison to control animals (animals treated with Zymosan but treated with only distilled water instead of the testing compound). The corresponding ED50, representing the dose able of reducing of 50% the zymosan induced paw volume increase, can be calculated for those cases where there is a linear dose-response relationship.
# In both the experiments, for each test compound, at least three doses were used, with 10 animals per group. Compounds of the invention were tested at 10, 20 and 40 mg/Kg.
# [2] = system: mechanical hyperalgesia associated with STZ-induced diabetes; assay: STZ-induced diabetes mechanical hyperalgesia (neuropathic pain); type: in vivo, rat
# Procedure: Streptozotocin (STZ)-induced diabetes in the rat has been increasingly used as a model of painful diabetic neuropathy to assess the efficacies of potential analgesic agents (C. Courteix, Pain 1993, 53, 81-8). The compounds of the invention were tested for efficacy in reducing mechanical hyperalgesia associated with STZ-induced diabetes in the rat, according to the experimental model as described by the literature. Diabetes was produced with the injection of a single dose (75 mg/Kg i.p.) of STZ. In the following four weeks after the induction of diabetes the clinical symptoms (weight, body and skin temperature, motility and hyperglycemia) progressively developed by the animals, are strictly monitored. After four weeks, the scores obtained in diabetic rats to various pain stimuli (in particular mechanical stimuli) were grater than those in normal rats, indicating hyperalgesia. The hyperalgesia induced by diabetes was evaluated using the Randall-Selitto method as above described, and quantitated using the analgesimeter. Also in this case, the difference in the mechanical pain threshold between the basal value (generally 230-250 g) and the one tolerated by the animals treated with the drug, is defined as mechanical hyperalgesia. The compounds of the invention were administered i.p. (solution, Tween 80, 10% in saline) at different doses, and mechanical hyperalgesia was measured at the reported time, as maximum percent effect (MPE) which represents the difference (%) in pain threshold between the animals treated with the drug and the controls that received only the vehicle, compared with the weight borne by naïf non-diabetic controls. A 100% protection means that the diabetic animals treated with the compound can tolerate the same stimulus (weight) as the naïf non-diabetic animals. MPE higher than 100% means that the diabetic animal treated with the compound can tolerate stimuli (weight) higher than the control non-diabetic animals (hypoalgesia).
# COX-2 expression = assay: IL-1β induced COX-2 expression in SW1353 human chondrosarcoma cell line; type: cell-based; settings: Homo sapiens, SW1353, read-out: Inhibition of COX-2 expression in SW1353 human chondrosarcoma cell line, IC50
# Excerpt: Conversely, compounds of the invention are able to inhibit, at micromolar concentration, IL-1β induced PGE2 production in cellular systems. This inhibition effect on the production of the pro-inflammatory mediator PGE2, instead of to be ascribed to a direct COX-2 inhibition, as happens with Celecoxib and other COX-2 inhibitors, is in this case due to inhibition of cytokine induced COX-2 expression as proven in cellular systems.
# Effectiveness in inhibition of PGE2 production induced by IL-1β in chondrocyte cell culture, as well as inhibition in IL-1β induced COX-2 expression in SW1353 human chondrosarcoma cell line, is summarized in Table 2, for representative compounds of the invention.
smiles,measurement,setting,value
"CC(=N)Nc1ccc2nc(-c3ccc4c(c3)OCO4)ncc2c1 [Example 1, N-[2-(1,3-benzodioxol-5-yl)quinazolin-6-yl]acetamidine]",Inhibition (%) of IL-1 production,IL-1 production,50%
same,Inhibition (%) of IL-6 production,IL-6 production,65%
same,ED50,"[1]; Rattus norvegicus, calculated from linear dose-response, read-out: Oedema Reduction ED50",23.1 mg/kg
same,Oedema Reduction ED30,[1]; 2 hours after challenge,12.2 mg/kg
same,MPE 0.5 hrs.,[2]; 3 mg/Kg i.p.,15%
same,MPE 1.5 hrs.,[2]; 3 mg/Kg i.p.,30%
same,MPE 3 hrs.,[2]; 3 mg/Kg i.p.,45%
same,MPE 0.5 hrs.,[2]; 10 mg/Kg i.p.,59%
same,MPE 1.5 hrs.,[2]; 10 mg/Kg i.p.,34%
same,MPE 3 hrs.,[2]; 10 mg/Kg i.p.,46%
same,MPE 0.5 hrs.,[2]; 30 mg/Kg i.p.,110%
same,MPE 1.5 hrs.,[2]; 30 mg/Kg i.p.,137%
same,MPE 3 hrs.,[2]; 30 mg/Kg i.p.,101%
same,IC50,COX-2 expression,4.6 µM
